From patent US20220389010A1, “Novel Triazolopyridine Derivatives and Pharmaceutical Composition Comprising Same” (Daewoong Pharmaceutical Co., Ltd., priority 2019, published 2022)
pIC50: −log10 of the molar value.

molecular target: T1, Recombinant purified human JAK3 (Homo sapiens, UniProt P52333); test: JAK3 inhibitory activity test (ADP-Glo kinase assay); assay type: biochemical; conditions: ATP 5 uM, 1 hour incubation at 30° C.
T1 construct: purchased Promega V9441
T1 sequence (P52333 1-1124): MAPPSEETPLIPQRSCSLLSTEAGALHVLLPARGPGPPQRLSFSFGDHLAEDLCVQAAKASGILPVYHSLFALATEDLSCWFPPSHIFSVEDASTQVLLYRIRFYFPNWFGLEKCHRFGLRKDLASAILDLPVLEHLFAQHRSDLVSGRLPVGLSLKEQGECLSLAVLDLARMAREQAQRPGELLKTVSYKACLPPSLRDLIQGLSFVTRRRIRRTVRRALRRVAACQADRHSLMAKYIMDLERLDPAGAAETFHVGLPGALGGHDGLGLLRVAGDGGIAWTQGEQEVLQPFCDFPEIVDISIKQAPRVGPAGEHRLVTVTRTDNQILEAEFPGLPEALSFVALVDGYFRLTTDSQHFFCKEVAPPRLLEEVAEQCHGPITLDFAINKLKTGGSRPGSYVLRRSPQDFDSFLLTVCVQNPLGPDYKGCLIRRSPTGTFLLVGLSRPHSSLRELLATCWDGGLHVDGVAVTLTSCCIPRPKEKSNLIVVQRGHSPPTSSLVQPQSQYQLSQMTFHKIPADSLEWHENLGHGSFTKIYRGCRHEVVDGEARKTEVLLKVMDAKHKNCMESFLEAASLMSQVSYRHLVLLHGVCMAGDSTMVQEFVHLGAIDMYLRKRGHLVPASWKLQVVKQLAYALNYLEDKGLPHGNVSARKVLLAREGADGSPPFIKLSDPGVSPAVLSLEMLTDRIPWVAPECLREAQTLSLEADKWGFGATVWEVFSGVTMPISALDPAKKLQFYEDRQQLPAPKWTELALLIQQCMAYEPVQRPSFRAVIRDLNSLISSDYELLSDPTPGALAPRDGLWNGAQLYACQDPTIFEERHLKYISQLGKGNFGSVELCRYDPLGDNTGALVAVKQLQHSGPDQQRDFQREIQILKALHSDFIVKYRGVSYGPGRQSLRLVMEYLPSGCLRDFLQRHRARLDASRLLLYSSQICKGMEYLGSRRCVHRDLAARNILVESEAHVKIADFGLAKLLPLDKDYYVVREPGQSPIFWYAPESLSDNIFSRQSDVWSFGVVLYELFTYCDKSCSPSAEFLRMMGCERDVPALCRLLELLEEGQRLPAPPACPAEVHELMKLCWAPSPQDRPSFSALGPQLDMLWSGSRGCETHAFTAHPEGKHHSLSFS
Description: The inhibitory activities against JAK3 were measured for the compounds prepared in the above Examples through in vitro analysis on the ADP Glow (Glo) platform.
Specifically, the inhibitory activities against JAK3 were measured using a JAK3 kinase assay kit (Promega, V9441), which was purchased from Promega. Recombinant purified human JAK3 was diluted with 1× kinase reaction buffer (JAK3: 40 mM Tris-CI, pH 7.5, 20 mM MgCl2, 0.1 mg/mL BSA and 50 uM OTT and added to a 96 well plate (JAK3: final concentration of 4 ng per reaction). The compounds prepared in the previous Examples were treated so as to be finally a 1% DMSO aqueous solution, and a substrate cocktail containing ATP (JAK3: final concentration of 5 uM) and 0.2 ug/ul of Poly(Glu4, Tyri) peptide (JAK3 final concentration) in the total 25 uL reactants was added to a 96-well plate to initiate enzymatic reaction. After incubation (30° C.) for 1 hour, equivalent volume (25 uL per reaction) of ADP Glo was added and incubated (30° C.) for 40 minutes at room temperature. Then, a kinase detection reagent (50 uL per reaction) was added and incubated (30° C.) for 30 minutes at room temperature. The kinase activity was measured by chemiluminescence according to the instructions of ADP Glo kinase assay kit, and the inhibitory activity of the compounds according to the present invention was calculated. For the analysis of the results of each compound, Microsoft Excel was used, and IC50 values were calculated by SigmaPlot software.

Row | Structure (SMILES) | pIC50
1 | C=CC(=O)Nc1cccc(Oc2cccc3nc(Nc4ccc(-n5nc(C)cc5C)cc4)nn23)c1 [Example 10, N-(3-(2-(4-(3,5-dimethyl-1H-pyrazol-1-yl)phenylamino)-[1,2,4]triazolo[1,5-a]pyridin-5-yloxy)phenyl)acrylamide] | 8.44
2 | C=CC(=O)Nc1cccc(Oc2cccc3nc(Nc4nc5ccc(Cl)cc5s4)nn23)c1 [Example 22, N-(3-(2-(6-chlorobenzo[d]thiazol-2-ylamino)-[1,2,4]triazolo[1,5-a]pyridin-5-yloxy)phenyl)acrylamide] | < 6.40
3 | C=CC(=O)Nc1cccc(Oc2cccc3nc(Nc4cccc5ccccc45)nn23)c1 [Example 23, N-(3-(2-(naphthalen-1-ylamino)-[1,2,4]triazolo[1,5-a]pyridin-5-yloxy)phenyl)acrylamide] | < 6.40
4 | C=CC(=O)Nc1ccc(F)c(Oc2cccc3nc(Nc4ccc5ncsc5c4)nn23)c1 [Example 28, N-(3-(2-(benzo[d]thiazol-6-ylamino)-[1,2,4]triazolo[1,5-a]pyridin-5-yloxy)-4-fluorophenyl)acrylamide] | 8.92
5 | C=CC(=O)Nc1cccc(Oc2cccc3nc(Nc4cnn(C(F)F)c4)nn23)c1 [Example 8, N-(3-(2-(1-(difluoromethyl)-1H-pyrazol-4-ylamino)-[1,2,4]triazolo[1,5-a]pyridin-5-yloxy)phenyl)acrylamide] | 8.89
6 | C=CC(=O)Nc1cccc(Oc2cccc3nc(Nc4ccc(Oc5ccccc5)cc4)nn23)c1 [Example 13, N-(3-(2-(4-phenoxyphenylamino)-[1,2,4]triazolo[1,5-a]pyridin-5-yloxy)phenyl)acrylamide] | 8.01
7 | C=CC(=O)Nc1cccc(Oc2cccc3nc(Nc4cnn(C)c4)nn23)c1 [Example 2, N-(3-(2-(1-methyl-1H-pyrazol-4-ylamino)-[1,2,4]triazolo[1,5-a]pyridin-5-yloxy)phenyl)acrylamide] | 8.96
8 | C=CC(=O)Nc1cccc(Oc2cccc3nc(Nc4ccc(N(C)C)cc4)nn23)c1 [Example 6, N-(3-(2-(4-(dimethylamino)phenylamino)-[1,2,4]triazolo[1,5-a]pyridin-5-yloxy)phenyl)acrylamide] | 8.68
9 | C=CC(=O)Nc1cccc(Oc2cccc3nc(Nc4cnc5ccccc5c4)nn23)c1 [Example 24, N-(3-(2-(quinolin-3-ylamino)-[1,2,4]triazolo[1,5-a]pyridin-5-yloxy)phenyl)acrylamide] | 7.81
10 | C=CC(=O)Nc1cccc(Oc2cccc3nc(Nc4ccc(N5CCOCC5)cc4)nn23)c1 [Example 4, N-(3-(2-(4-morpholinophenylamino)-[1,2,4]triazolo[1,5-a]pyridin-5-yloxy)phenyl)acrylamide] | 9.22
11 | C=CC(=O)Nc1cccc(Oc2cccc3nc(Nc4ccc(CN(C)C)cc4)nn23)c1 [Example 16, N-(3-(2-(4-((dimethylamino)methyl)phenylamino)-[1,2,4]triazolo[1,5-a]pyridin-5-yloxy)phenyl)acrylamide] | 9.15
12 | C=CC(=O)Nc1cccc(Oc2cccc3nc(Nc4ccc(N5CCN(C)CC5)cc4)nn23)c1 [Example 1, N-(3-(2-(4-(4-methylpiperazin-1-yl)phenylamino)-[1,2,4]triazolo[1,5-a]pyridin-5-yloxy)phenyl)acrylamide] | 9.33
13 | C=CC(=O)Nc1cccc(Oc2cccc3nc(Nc4ccc5nc(Cl)sc5c4)nn23)c1 [Example 11, N-(3-(2-(2-chlorobenzo[d]thiazol-6-ylamino)-[1,2,4]triazolo[1,5-a]pyridin-5-yloxy)phenyl)acrylamide] | 7.99
14 | C=CC(=O)Nc1cccc(Oc2cccc3nc(Nc4cnn(Cc5cccc(OC)c5)c4)nn23)c1 [Example 14, N-(3-(2-(1-(3-methoxybenzyl)-1H-pyrazol-4-ylamino)-[1,2,4]triazolo[1,5-a]pyridin-5-yloxy)phenyl)acrylamide] | 7.95
15 | C=CC(=O)Nc1cccc(Oc2cccc3nc(Nc4cnc5onc(C)c5c4)nn23)c1 [Example 25, N-(3-(2-(3-methylisoxazolo[5,4-b]pyridin-5-ylamino)-[1,2,4]triazolo[1,5-a]pyridin-5-yloxy)phenyl)acrylamide] | 6.98
16 | C=CC(=O)Nc1cccc(Oc2cccc3nc(Nc4ccc(S(=O)(=O)N5CCCCC5)cc4)nn23)c1 [Example 18, N-(3-(2-(4-(piperidin-1-ylsulfonyl)phenylamino)-[1,2,4]triazolo[1,5-a]pyridin-5-yloxy)phenyl)acrylamide] | 8.52
17 | C=CC(=O)Nc1cccc(Oc2cccc3nc(Nc4ccc(C(=O)N5CCOCC5)cc4)nn23)c1 [Example 17, N-(3-(2-(4-(morpholine-4-carbonyl)phenylamino)-[1,2,4]triazolo[1,5-a]pyridin-5-yloxy)phenyl)acrylamide] | 9.15
18 | C=CC(=O)Nc1ccc(F)c(Oc2cccc3nc(Nc4ccc(N5CCN(C)CC5)cc4)nn23)c1 [Example 29, N-(4-fluoro-3-(2-(4-(4-methylpiperazin-1-yl)phenylamino)-[1,2,4]triazolo[1,5-a]pyridin-5-yloxy)phenyl)acrylamide] | 9.15
19 | C=CC(=O)Nc1cccc(Oc2cccc3nc(Nc4cccc(-n5nc(C)cc5C)c4)nn23)c1 [Example 9, N-(3-(2-(3-(3,5-dimethyl-1H-pyrazol-1-yl)phenylamino)-[1,2,4]triazolo[1,5-a]pyridin-5-yloxy)phenyl)acrylamide] | 7.98
20 | C=CC(=O)Nc1cccc(Oc2cccc3nc(Nc4ccc5ncsc5c4)nn23)c1 [Example 3, N-(3-(2-(benzo[d]thiazol-6-ylamino)-[1,2,4]triazolo[1,5-a]pyridin-5-yloxy)phenyl)acrylamide] | 8.62
21 | C=CC(=O)Nc1ccc(F)c(Oc2cccc3nc(Nc4cnn(C)c4)nn23)c1 [Example 30, N-(4-fluoro-3-(2-(1-methyl-1H-pyrazol-4-ylamino)-[1,2,4]triazolo[1,5-a]pyridin-5-yloxy)phenyl)acrylamide] | 7.88
22 | C=CC(=O)Nc1cccc(Oc2cccc3nc(Nc4cccc(-n5nnnc5C)c4)nn23)c1 [Example 7, N-(3-(2-(3-(5-methyl-1H-tetrazol-1-yl)phenylamino)-[1,2,4]triazolo[1,5-a]pyridin-5-yloxy)phenyl)acrylamide] | 8.92
23 | C=CC(=O)Nc1cccc(Oc2cccc3nc(Nc4ccc5scnc5c4)nn23)c1 [Example 12, N-(3-(2-(benzo[d]thiazol-5-ylamino)-[1,2,4]triazolo[1,5-a]pyridin-5-yloxy)phenyl)acrylamide] | 8.59
24 | C=CC(=O)Nc1cccc(Oc2cccc3nc(Nc4ccc(OCCN(CC)CC)cc4)nn23)c1 [Example 15, N-(3-(2-(4-(2-(diethylamino)ethoxy)phenylamino)-[1,2,4]triazolo[1,5-a]pyridin-5-yloxy)phenyl)acrylamide] | 8.21
25 | C=CC(=O)Nc1cccc(Oc2cccc3nc(Nc4cnc5ncn(C)c5c4)nn23)c1 [Example 26, N-(3-(2-(1-methyl-1H-imidazo[4,5-b]pyridin-6-ylamino)-[1,2,4]triazolo[1,5-a]pyridin-5-yloxy)phenyl)acrylamide] | < 7.10
26 | C=CC(=O)Nc1cccc(Oc2cccc3nc(Nc4cnn(CCN5CCOCC5)c4)nn23)c1 [Example 19, N-(3-(2-(1-(2-morpholinoethyl)-1H-pyrazol-4-ylamino)-[1,2,4]triazolo[1,5-a]pyridin-5-yloxy)phenyl)acrylamide] | 8.29
27 | CC#CC(=O)Nc1cccc(Oc2cccc3nc(Nc4ccc(N5CCN(C)CC5)cc4)nn23)c1 [Example 20, N-(3-(2-(4-(4-methylpiperazin-1-yl)phenylamino)-[1,2,4]triazolo[1,5-a]pyridin-5-yloxy)phenyl)but-2-ynamide] | 9.22
